{"source": "paper PMC5513037", "about": "“Examining the influence of specificity ligands and ATP-competitive ligands on the overall effectiveness of bivalent kinase inhibitors” (Proteome Science, 2017)", "assay_in_all_cases": "KAM-matrix competition in K562 lysate;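 as to 0.001 uM KAM: median log10 fold change of treatment over DMSO control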;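 as to 0.01 uM KAM: median log10 fold change of treatment over DMSO control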;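 as to 0.1 uM KAM: median log10 fold change of treatment over DMSO control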;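 as to 1 uM KAM: median log10 fold change of treatment over DMSO control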;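 as to 10 uM KAM: median log10 fold change of treatment over DMSO control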", "type_in_all_cases": "binding", "key": {"BTK": {"biological_target": "T1, BTK (Homo sapiens, UniProt Q06187)", "T1 construct": "endogenous in cells; host or cells: K562", "T1 sequence (Q06187 whole entry)": "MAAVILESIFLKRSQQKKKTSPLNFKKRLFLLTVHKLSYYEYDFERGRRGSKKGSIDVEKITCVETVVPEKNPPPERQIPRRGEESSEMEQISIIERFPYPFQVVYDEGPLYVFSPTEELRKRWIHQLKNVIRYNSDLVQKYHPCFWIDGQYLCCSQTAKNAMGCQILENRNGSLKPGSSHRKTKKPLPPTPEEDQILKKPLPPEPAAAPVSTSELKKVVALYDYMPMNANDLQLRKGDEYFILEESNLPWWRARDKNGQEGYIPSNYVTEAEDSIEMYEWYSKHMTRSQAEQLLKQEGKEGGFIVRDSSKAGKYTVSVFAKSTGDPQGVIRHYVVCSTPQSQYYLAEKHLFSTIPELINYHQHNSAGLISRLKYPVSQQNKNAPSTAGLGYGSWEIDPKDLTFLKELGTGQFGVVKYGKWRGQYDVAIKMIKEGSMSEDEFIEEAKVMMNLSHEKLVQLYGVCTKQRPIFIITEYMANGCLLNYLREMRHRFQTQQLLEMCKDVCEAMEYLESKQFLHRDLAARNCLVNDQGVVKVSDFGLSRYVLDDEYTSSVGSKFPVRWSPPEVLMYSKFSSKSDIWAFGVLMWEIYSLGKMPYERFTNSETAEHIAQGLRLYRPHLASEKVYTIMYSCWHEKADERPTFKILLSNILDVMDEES", "method": "(§1) Supplement 12953_2017_125_MOESM1_ESM.zip/MS_Supp Info.xlsx, sheet \"KAM\" | column: 10 uM KAM; 1 uM KAM; 0.1 uM KAM; 0.01 uM KAM; 0.001 uM KAM; RB50"}, "CAMK4": {"biological_target": "T2, CAMK4 (Homo sapiens, UniProt Q16566)", "T2 construct": "endogenous in cells; host or cells: K562", "T2 sequence (Q16566 1-473)": "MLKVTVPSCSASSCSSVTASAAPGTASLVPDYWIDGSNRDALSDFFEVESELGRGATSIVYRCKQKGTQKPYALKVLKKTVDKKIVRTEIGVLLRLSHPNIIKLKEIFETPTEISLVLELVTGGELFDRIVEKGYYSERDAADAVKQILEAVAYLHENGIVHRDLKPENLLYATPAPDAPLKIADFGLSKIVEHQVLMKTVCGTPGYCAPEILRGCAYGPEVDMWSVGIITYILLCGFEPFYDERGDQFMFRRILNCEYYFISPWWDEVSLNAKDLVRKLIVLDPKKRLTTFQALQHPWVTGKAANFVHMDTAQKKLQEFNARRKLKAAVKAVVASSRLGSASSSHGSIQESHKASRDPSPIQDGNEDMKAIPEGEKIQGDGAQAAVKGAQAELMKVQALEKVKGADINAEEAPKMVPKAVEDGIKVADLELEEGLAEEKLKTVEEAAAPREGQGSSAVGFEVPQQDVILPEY", "method": "as §1"}, "EPHA2": {"biological_target": "T3, EPHA2 (Homo sapiens, UniProt P29317)", "T3 construct": "endogenous in cells; host or cells: K562", "T3 sequence (P29317 24-976)": "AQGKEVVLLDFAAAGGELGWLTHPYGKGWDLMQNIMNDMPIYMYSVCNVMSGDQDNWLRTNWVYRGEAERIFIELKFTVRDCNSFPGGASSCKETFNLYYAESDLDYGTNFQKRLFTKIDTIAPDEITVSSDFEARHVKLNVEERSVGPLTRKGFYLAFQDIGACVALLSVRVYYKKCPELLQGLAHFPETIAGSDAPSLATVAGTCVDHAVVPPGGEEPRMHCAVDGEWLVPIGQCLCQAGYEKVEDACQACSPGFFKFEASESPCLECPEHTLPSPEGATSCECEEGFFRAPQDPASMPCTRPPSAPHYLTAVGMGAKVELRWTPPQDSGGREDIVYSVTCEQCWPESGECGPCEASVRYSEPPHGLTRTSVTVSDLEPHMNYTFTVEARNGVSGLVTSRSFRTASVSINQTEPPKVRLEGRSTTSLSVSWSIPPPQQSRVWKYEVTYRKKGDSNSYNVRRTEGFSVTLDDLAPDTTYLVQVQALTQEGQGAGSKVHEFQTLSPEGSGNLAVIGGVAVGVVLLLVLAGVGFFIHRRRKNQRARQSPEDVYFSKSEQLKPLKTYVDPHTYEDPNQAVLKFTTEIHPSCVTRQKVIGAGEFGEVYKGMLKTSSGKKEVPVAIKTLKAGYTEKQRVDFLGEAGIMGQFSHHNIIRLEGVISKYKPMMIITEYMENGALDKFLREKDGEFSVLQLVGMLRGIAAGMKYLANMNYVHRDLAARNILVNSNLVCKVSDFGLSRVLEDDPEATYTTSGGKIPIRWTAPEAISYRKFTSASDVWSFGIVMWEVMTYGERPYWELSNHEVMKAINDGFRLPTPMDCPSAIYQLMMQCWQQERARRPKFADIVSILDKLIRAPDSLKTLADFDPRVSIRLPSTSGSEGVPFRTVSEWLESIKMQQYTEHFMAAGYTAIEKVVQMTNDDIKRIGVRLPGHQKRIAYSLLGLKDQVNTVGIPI", "method": "as §1"}, "EPHB4": {"biological_target": "T4, EPHB4 (Homo sapiens, UniProt P54760)", "T4 construct": "endogenous in cells; host or cells: K562", "T4 sequence (P54760 16-987)": "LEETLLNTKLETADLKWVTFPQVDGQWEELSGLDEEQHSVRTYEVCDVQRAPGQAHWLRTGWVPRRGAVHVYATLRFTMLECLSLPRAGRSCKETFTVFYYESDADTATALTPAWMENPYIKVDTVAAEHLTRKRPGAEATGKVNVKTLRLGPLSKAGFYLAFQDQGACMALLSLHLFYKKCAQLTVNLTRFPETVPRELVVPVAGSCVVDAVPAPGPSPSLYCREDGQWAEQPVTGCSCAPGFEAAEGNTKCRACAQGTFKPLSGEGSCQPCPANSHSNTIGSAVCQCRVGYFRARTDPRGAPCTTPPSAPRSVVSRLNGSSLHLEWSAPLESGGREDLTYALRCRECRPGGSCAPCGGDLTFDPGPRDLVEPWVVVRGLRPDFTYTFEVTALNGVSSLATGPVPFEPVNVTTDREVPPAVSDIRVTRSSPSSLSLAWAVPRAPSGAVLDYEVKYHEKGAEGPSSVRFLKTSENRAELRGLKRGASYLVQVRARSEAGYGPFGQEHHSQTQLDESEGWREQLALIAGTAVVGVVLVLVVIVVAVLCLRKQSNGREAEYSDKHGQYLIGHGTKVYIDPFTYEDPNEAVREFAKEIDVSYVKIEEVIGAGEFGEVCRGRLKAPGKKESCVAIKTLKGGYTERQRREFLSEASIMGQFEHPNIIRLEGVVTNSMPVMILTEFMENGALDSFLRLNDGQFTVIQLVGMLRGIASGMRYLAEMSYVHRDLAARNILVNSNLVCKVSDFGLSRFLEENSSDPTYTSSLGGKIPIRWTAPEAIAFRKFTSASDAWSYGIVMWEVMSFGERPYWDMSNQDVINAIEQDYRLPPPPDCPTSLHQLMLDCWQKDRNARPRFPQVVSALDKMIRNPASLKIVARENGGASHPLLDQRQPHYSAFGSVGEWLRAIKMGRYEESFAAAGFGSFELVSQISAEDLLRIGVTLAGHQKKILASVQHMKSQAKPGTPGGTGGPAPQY", "method": "as §1"}, "HIPK2": {"biological_target": "T5, HIPK2 (Homo sapiens, UniProt Q9H2X6)", "T5 construct": "endogenous in cells; host or cells: K562 cell lysate", "T5 sequence (Q9H2X6 whole entry)": "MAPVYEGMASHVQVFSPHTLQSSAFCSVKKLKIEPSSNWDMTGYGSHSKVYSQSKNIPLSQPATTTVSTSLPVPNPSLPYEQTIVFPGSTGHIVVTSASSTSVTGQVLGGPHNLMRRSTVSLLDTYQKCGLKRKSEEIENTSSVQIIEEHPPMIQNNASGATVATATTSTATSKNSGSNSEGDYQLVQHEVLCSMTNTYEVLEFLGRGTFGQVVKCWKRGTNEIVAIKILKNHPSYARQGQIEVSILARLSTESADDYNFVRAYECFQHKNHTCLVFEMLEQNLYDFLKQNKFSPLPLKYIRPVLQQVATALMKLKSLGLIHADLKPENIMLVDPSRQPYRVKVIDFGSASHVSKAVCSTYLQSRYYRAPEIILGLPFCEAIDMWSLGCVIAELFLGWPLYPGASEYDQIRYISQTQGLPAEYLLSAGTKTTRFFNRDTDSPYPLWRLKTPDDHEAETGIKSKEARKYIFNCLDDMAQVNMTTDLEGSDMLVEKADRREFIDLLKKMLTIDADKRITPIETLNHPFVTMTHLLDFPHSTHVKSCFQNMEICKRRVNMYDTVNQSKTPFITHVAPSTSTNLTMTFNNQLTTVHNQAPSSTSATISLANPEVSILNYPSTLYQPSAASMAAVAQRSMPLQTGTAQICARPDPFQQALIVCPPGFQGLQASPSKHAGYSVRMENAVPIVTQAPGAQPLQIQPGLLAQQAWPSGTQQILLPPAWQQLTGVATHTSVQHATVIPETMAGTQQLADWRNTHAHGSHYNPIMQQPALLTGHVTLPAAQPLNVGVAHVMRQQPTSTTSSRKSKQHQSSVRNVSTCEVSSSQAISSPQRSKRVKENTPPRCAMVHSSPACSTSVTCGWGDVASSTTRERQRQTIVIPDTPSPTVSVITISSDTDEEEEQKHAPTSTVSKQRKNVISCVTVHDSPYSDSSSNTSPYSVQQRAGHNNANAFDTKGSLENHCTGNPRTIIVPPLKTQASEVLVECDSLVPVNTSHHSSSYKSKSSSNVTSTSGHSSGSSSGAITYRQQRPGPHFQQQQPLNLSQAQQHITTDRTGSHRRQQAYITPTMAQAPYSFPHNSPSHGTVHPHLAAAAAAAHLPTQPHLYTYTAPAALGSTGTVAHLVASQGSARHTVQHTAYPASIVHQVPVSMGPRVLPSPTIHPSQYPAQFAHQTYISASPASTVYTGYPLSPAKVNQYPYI", "method": "as §1"}, "STK3": {"biological_target": "T6, STK3 (Homo sapiens, UniProt Q13188)", "T6 construct": "endogenous in cells; host or cells: K562 cell lysate", "T6 sequence (Q13188 1-491)": "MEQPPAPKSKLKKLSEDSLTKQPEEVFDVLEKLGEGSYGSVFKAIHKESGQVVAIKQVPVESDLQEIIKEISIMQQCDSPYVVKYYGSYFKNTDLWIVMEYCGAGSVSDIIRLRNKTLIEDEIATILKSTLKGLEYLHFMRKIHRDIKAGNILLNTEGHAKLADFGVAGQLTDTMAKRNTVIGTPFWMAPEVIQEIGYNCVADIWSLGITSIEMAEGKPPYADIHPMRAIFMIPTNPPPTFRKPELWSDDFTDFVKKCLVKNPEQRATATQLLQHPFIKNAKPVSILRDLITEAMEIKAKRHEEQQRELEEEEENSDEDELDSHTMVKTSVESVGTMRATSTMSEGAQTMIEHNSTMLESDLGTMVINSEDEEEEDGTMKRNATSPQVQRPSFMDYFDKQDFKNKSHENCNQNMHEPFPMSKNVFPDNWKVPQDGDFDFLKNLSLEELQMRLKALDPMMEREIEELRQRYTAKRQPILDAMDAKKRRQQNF", "method": "as §1"}, "TRIM28": {"biological_target": "T7, TRIM28 (Homo sapiens, UniProt Q13263)", "T7 construct": "endogenous in cells; host or cells: K562", "T7 sequence (Q13263 whole entry)": "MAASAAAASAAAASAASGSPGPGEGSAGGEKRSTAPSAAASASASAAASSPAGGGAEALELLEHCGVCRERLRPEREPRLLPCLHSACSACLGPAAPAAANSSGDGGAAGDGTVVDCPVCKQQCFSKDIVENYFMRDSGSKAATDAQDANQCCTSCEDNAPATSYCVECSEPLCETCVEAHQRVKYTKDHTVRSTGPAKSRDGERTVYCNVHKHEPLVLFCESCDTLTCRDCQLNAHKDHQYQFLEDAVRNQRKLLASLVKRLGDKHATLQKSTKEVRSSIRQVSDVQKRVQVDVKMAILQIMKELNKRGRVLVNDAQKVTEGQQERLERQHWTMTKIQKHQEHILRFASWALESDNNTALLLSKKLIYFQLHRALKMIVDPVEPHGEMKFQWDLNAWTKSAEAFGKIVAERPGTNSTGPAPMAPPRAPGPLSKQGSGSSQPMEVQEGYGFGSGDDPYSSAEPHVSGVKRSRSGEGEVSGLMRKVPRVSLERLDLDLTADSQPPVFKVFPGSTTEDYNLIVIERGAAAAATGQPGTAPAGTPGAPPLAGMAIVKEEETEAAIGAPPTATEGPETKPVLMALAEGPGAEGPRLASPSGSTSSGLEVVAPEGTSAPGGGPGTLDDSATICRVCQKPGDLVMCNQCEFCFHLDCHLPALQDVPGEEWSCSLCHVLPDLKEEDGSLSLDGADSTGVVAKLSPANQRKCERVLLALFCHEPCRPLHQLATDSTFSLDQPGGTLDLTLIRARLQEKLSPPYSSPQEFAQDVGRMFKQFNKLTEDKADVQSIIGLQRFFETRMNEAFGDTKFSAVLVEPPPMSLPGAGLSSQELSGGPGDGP", "method": "as §1"}, "[1]": {"details": "read-out: RB50 (the source's name)"}, "[2]": {"details": "KAM 0.001-10 uM, read-out: RB50 (the source's name)"}}, "note": "pIC50: −log10 of the molar value."}
{"smiles": "N#CCc1ccc(Nc2nc(NCCCN)cc(Nc3cc(C4CC4)[nH]n3)n2)cc1", "note": "[KAM]", "values": [{"measurement": "median Log10 fold change", "setting": "BTK; 0.001 uM KAM", "value": -0.05218}, {"measurement": "median Log10 fold change", "setting": "BTK; 0.01 uM KAM", "value": -0.04172}, {"measurement": "median Log10 fold change", "setting": "BTK; 0.1 uM KAM", "value": -0.1708}, {"measurement": "median Log10 fold change", "setting": "BTK; 1 uM KAM", "value": -0.3888}, {"measurement": "median Log10 fold change", "setting": "BTK; 10 uM KAM", "value": -0.5091}, {"measurement": "pIC50", "setting": "BTK; [1]", "value": 6.25}, {"measurement": "pIC50", "setting": "CAMK4; [2]", "value": "< 5.00"}, {"measurement": "0.001 uM KAM", "setting": "CAMK4; relative to 0 uM KAM = 0", "value": -0.0432}, {"measurement": "0.01 uM KAM", "setting": "CAMK4; relative to 0 uM KAM = 0", "value": 0.002565}, {"measurement": "0.1 uM KAM", "setting": "CAMK4; relative to 0 uM KAM = 0", "value": 0.008768}, {"measurement": "1 uM KAM", "setting": "CAMK4; relative to 0 uM KAM = 0", "value": 0.00582}, {"measurement": "10 uM KAM", "setting": "CAMK4; relative to 0 uM KAM = 0", "value": -0.03437}, {"measurement": "pIC50", "setting": "EPHA2; [2]", "value": "< 5.00"}, {"measurement": "0.001 uM KAM", "setting": "EPHA2; relative to 0 uM KAM = 0", "value": -0.04778}, {"measurement": "0.01 uM KAM", "setting": "EPHA2; relative to 0 uM KAM = 0", "value": 0.0608}, {"measurement": "0.1 uM KAM", "setting": "EPHA2; relative to 0 uM KAM = 0", "value": 0.1233}, {"measurement": "1 uM KAM", "setting": "EPHA2; relative to 0 uM KAM = 0", "value": 0.3139}, {"measurement": "10 uM KAM", "setting": "EPHA2; relative to 0 uM KAM = 0", "value": 0.0956}, {"measurement": "median Log10 fold change", "setting": "EPHB4; 0.001 uM KAM", "value": -0.01696}, {"measurement": "median Log10 fold change", "setting": "EPHB4; 0.01 uM KAM", "value": -0.007903}, {"measurement": "median Log10 fold change", "setting": "EPHB4; 0.1 uM KAM", "value": -0.1428}, {"measurement": "median Log10 fold change", "setting": "EPHB4; 1 uM KAM", "value": -0.3696}, {"measurement": "median Log10 fold change", "setting": "EPHB4; 10 uM KAM", "value": -0.517}, {"measurement": "pIC50", "setting": "EPHB4; [1]", "value": 6.14}, {"measurement": "median Log10 fold change", "setting": "HIPK2; 0.001 uM KAM", "value": -0.003211}, {"measurement": "median Log10 fold change", "setting": "HIPK2; 0.01 uM KAM", "value": 0.02239}, {"measurement": "median Log10 fold change", "setting": "HIPK2; 0.1 uM KAM", "value": -0.07372}, {"measurement": "median Log10 fold change", "setting": "HIPK2; 1 uM KAM", "value": -0.2033}, {"measurement": "median Log10 fold change", "setting": "HIPK2; 10 uM KAM", "value": -0.3492}, {"measurement": "pIC50", "setting": "HIPK2; [1]", "value": 5.37}, {"measurement": "median Log10 fold change", "setting": "STK3; 0.001 uM KAM", "value": -0.01987}, {"measurement": "median Log10 fold change", "setting": "STK3; 0.01 uM KAM", "value": -0.0374}, {"measurement": "median Log10 fold change", "setting": "STK3; 0.1 uM KAM", "value": -0.2245}, {"measurement": "median Log10 fold change", "setting": "STK3; 1 uM KAM", "value": -0.1979}, {"measurement": "median Log10 fold change", "setting": "STK3; 10 uM KAM", "value": -0.3452}, {"measurement": "pIC50", "setting": "STK3; [1]", "value": 5.43}, {"measurement": "pIC50", "setting": "TRIM28; [2]", "value": "< 5.00"}, {"measurement": "0.001 uM KAM", "setting": "TRIM28; relative to 0 uM KAM = 0", "value": 0.05535}, {"measurement": "0.01 uM KAM", "setting": "TRIM28; relative to 0 uM KAM = 0", "value": 0.00293}, {"measurement": "0.1 uM KAM", "setting": "TRIM28; relative to 0 uM KAM = 0", "value": 0.1066}, {"measurement": "1 uM KAM", "setting": "TRIM28; relative to 0 uM KAM = 0", "value": 0.08268}, {"measurement": "10 uM KAM", "setting": "TRIM28; relative to 0 uM KAM = 0", "value": 0.08032}]}
